Assay: Pharmacokinetics of six cocktail probe drugs in rat plasma (UPLC-MS/MS) after 7-day MGCD0103 or saline
Settings: for Cmax / half-life: Sprague-Dawley, rat, po; for Cmax: C max; for difference for AUC, t 1/2 between high dosage group and control group: p > 0.05
Description: The compounds were analyzed by a UPLC-MS/MS with ACQUITY I-Class UPLC and a XEVO TQD triple quadrupole mass spectrometer that was equipped with an electrospray ionization (ESI) interface (Waters Corp., Milford, MA, USA). The UPLC system included a Sample Manager with Flow-Through Needle (SM-FTN) and a Binary Solvent Manager (BSM). Data acquisition and instrument control were performed on the MassLynx 4.1 software (Waters Corp., Milford, MA, USA).
The initial mobile phase consisted of 0.1% formic acid and acetonitrile with gradient elution at a flow rate of 0.4 mL/min and an injection volume of 2 μL. […] The total run time of the analysis was 3 min.
The mass spectrometric detection was performed in a positive mode. Nitrogen was used as the cone gas (50 L/h) and desolvation gas (1000 L/h). The mass conditions were set as follows: source temperature 150°C, capillary voltage 2.5 kV, and desolvation temperature 500°C.
Forty rats (220 ± 20 g) were randomly divided into four different dosages of MGCD0103 groups (Low group, Medium group, High group, and control group with 10 rats in each group). MGCD0103 was dissolved in corn oil as suspension at three different concentrations (20, 40, and 80 mg/mL). Three different MGCD0103 groups (Low group, Medium group, and High group) were respectively given MGCD0103 20, 40, and 80 mg/kg one time by intragastric administration at every morning and last for 7 days. Control group were given saline by same administration method.
100 μL of plasma was obtained from blood sample after centrifugation at 4000 g for 10 min. In a 1.5 mL centrifuge tube, 200 μL of acetonitrile (containing 50 ng/mL IS) was added into 100 μL of collected plasma sample. […] Then supernatant (2 μL) was injected into the UPLC-MS/MS system for analysis.
Concentration of plasma probe drugs versus time was analyzed by Version 3.0 Data Analysis System (Wenzhou Medical University, China). The main pharmacokinetic parameters of the MGCD0103 group and control group were analyzed by SPSS l8.0 statistical software.

[1] = Control group: saline i.g. 7 days (no MGCD0103), then probe 10 mg/kg (tolbutamide 1 mg/kg) i.g., rat plasma, mean ± SD, n = 10
[2] = High group: MGCD0103 80 mg/kg i.g. 7 days, then probe 10 mg/kg (tolbutamide 1 mg/kg) i.g., rat plasma, mean ± SD, n = 10
[3] = Low group: MGCD0103 20 mg/kg i.g. 7 days, then probe 10 mg/kg (tolbutamide 1 mg/kg) i.g., rat plasma, mean ± SD, n = 10
[4] = Medium group: MGCD0103 40 mg/kg i.g. 7 days, then probe 10 mg/kg (tolbutamide 1 mg/kg) i.g., rat plasma, mean ± SD, n = 10
[5] = high dosage MGCD0103 group vs control
[6] = high dosage MGCD0103 group vs control, p < 0.05

Compound	AUC(0–t) [1]	AUC(0–∞) [1]	AUC(0–t) [2]	AUC(0–∞) [2]	AUC(0–t) [3]	AUC(0–∞) [3]	AUC(0–t) [4]	AUC(0–∞) [4]	Cmax (in vivo, 10 mg/kg)	half-life (in vivo, 10 mg/kg, t 1/2)	difference for AUC, t 1/2 between high dosage group and control group [5]	half-life (in vivo, t 1/2)	CL [1]	CL [2]	CL [3]	CL [4]	V [1]	V [2]	V [3]	V [4]	further results
CC(NC(C)(C)C)C(=O)c1cccc(Cl)c1 (stereo not shown) [Bupropion]	144.8 ± 94.1 ng/mL∗h	146.7 ± 95.1 ng/mL∗h	218.2 ± 460.8 ng/mL∗h	235.2 ± 502.8 ng/mL∗h	282.5 ± 403.2 ng/mL∗h	324.2 ± 506.3 ng/mL∗h	120.4 ± 45.1 ng/mL∗h	122.3 ± 45.2 ng/mL∗h	157 ± 179 ng/mL	0.8 ± 0.4 h	no significant difference										
COCCc1ccc(OCC(O)CNC(C)C)cc1 (stereo not shown) [Metoprolol]	709.2 ± 255.8 ng/mL∗h	724.2 ± 255.8 ng/mL∗h	1031.8 ± 1261.2 ng/mL∗h	1046.4 ± 1258.4 ng/mL∗h	698.1 ± 348.6 ng/mL∗h	703.8 ± 351.6 ng/mL∗h	836.1 ± 499.8 ng/mL∗h	843.7 ± 498.4 ng/mL∗h			no significant difference	0.8 ± 0.1 h									
COc1ccc2[nH]c([S+]([O-])Cc3ncc(C)c(OC)c3C)nc2c1 (stereo not shown) [Omeprazole]	503.8 ± 199.4 ng/mL∗h	528.0 ± 190.0 ng/mL∗h	676.8 ± 1111.6 ng/mL∗h	731.8 ± 1098.8 ng/mL∗h	700.1 ± 910.2 ng/mL∗h	704.9 ± 909.5 ng/mL∗h	526.1 ± 251.2 ng/mL∗h	539.1 ± 252.5 ng/mL∗h	556 ± 646 ng/mL		no significant difference		21.2 ± 7.6 L/h/kg	31.8 ± 19.0 L/h/kg	29.1 ± 16.6 L/h/kg	22.3 ± 10.0 L/h/kg					half-life (plasma, 10 mg/kg, t 1/2, Control group: saline i.g. 7 days (no MGCD0103), then probe 10 mg/kg (tolbutamide 1 mg/kg) i.g., rat plasma, mean ± SD, n = 10): 1.4 ± 1 h
CCOc1ccc(NC(C)=O)cc1 [Phenacetin]	3831.2 ± 2840.9 ng/mL∗h	3833.6 ± 2839.3 ng/mL∗h	2869.8 ± 3189.9 ng/mL∗h	2871.9 ± 3189.0 ng/mL∗h	2973.6 ± 1807.0 ng/mL∗h	2975.9 ± 1806.6 ng/mL∗h	2910.1 ± 1758.5 ng/mL∗h	2918.2 ± 1751.4 ng/mL∗h	2880 ± 1630 ng/mL	0.6 ± 0.4 h	no significant difference										
C[C@]12CC[C@H]3[C@@H](CCC4=CC(=O)CC[C@@]43C)[C@@H]1CC[C@@H]2O [Testosterone]	85.9 ± 40.6 ng/mL∗h	89.9 ± 43.9 ng/mL∗h	490.7 ± 1044.2 ng/mL∗h	524.5 ± 1042.4 ng/mL∗h	404.5 ± 908.2 ng/mL∗h	417.2 ± 927.8 ng/mL∗h	81.3 ± 28.8 ng/mL∗h	106.5 ± 45.1 ng/mL∗h			no significant difference		143.8 ± 89.6 L/h/kg	64.9 ± 33.4^∗ L/h/kg	104.8 ± 49.0 L/h/kg	109.0 ± 43.8 L/h/kg	161.1 ± 82.2 L/kg	254.0 ± 291.0 L/kg	259.1 ± 168.6 L/kg	253.2 ± 204.3 L/kg	Cmax (in vivo, 10 mg/kg, Control group: saline i.g. 7 days (no MGCD0103), then probe 10 mg/kg (tolbutamide 1 mg/kg) i.g., rat plasma, mean ± SD, n = 10): 88.1 ± 54.2 ng/mL; Cmax (in vivo, 10 mg/kg, High group: MGCD0103 80 mg/kg i.g. 7 days, then probe 10 mg/kg (tolbutamide 1 mg/kg) i.g., rat plasma, mean ± SD, n = 10): 462 ± 1030 ng/mL; Cmax (in vivo, 10 mg/kg, Low group: MGCD0103 20 mg/kg i.g. 7 days, then probe 10 mg/kg (tolbutamide 1 mg/kg) i.g., rat plasma, mean ± SD, n = 10): 302 ± 631 ng/mL; Cmax (in vivo, 10 mg/kg, Medium group: MGCD0103 40 mg/kg i.g. 7 days, then probe 10 mg/kg (tolbutamide 1 mg/kg) i.g., rat plasma, mean ± SD, n = 10): 93.2 ± 75.3 ng/mL; half-life (in vivo, 10 mg/kg, t 1/2, Control group: saline i.g. 7 days (no MGCD0103), then probe 10 mg/kg (tolbutamide 1 mg/kg) i.g., rat plasma, mean ± SD, n = 10): 1 ± 0.6 h; half-life (in vivo, 10 mg/kg, t 1/2, High group: MGCD0103 80 mg/kg i.g. 7 days, then probe 10 mg/kg (tolbutamide 1 mg/kg) i.g., rat plasma, mean ± SD, n = 10): 4 ± 7.1 h; half-life (in vivo, 10 mg/kg, t 1/2, Low group: MGCD0103 20 mg/kg i.g. 7 days, then probe 10 mg/kg (tolbutamide 1 mg/kg) i.g., rat plasma, mean ± SD, n = 10): 1.7 ± 0.8 h; half-life (in vivo, 10 mg/kg, t 1/2, Medium group: MGCD0103 40 mg/kg i.g. 7 days, then probe 10 mg/kg (tolbutamide 1 mg/kg) i.g., rat plasma, mean ± SD, n = 10): 2.2 ± 2.4 h; change of CL versus control group [6]: shortened
CCCCNC(=O)NS(=O)(=O)c1ccc(C)cc1 [Tolbutamide]	88701.2 ± 19274.8 ng/mL∗h	89852.0 ± 19168.1 ng/mL∗h	64052.9 ± 15988.6^∗ ng/mL∗h	64353.2 ± 15998.9^∗ ng/mL∗h	82724.8 ± 13265.9 ng/mL∗h	83176.9 ± 13264.2 ng/mL∗h	72448.6 ± 14850.4 ng/mL∗h	72761.4 ± 14754.7 ng/mL∗h				5.2 ± 1.2 h					0.088 ± 0.019 L/kg	0.099 ± 0.020 L/kg	0.090 ± 0.014 L/kg	0.093 ± 0.010 L/kg	change of AUC(0–t) versus control group [6]: decreased; change of CL versus control group [6]: increased

From PMC4556830, “The Effect of MGCD0103 on CYP450 Isoforms Activity of Rats by Cocktail Method” (BioMed Research International, 2015)
